In patent publication EP0908457B1, “3-(1,2-benzisothiazol- and isoxazol-5-Y1)-2,4(1H,3H)-pyrimidinedione or thione and 3-(1,2-benzisothiazol- and isoxazol-5-y1)-4(3H)-pyrimidinone or thione herbicidal agents” (BASF AKTIENGESELLSCHAFT, priority 1997, dated 1999):

Columns and labels:
[1] = system: Oryza sativa, (L.) Tebonnet; experiment: Rice tolerance to post-transplant applications under flooded paddy conditions (Example 187), ORYSAT (Rice, Tebonnet); settings: for herbicidal effect rating ORYSAT: rated three to four weeks after treatment; for ORYSAT: herbicidal effect rating 0-9, three to four weeks after treatment; as to herbicidal effect rating ORYSAT: meaning of each grade not given here
[2] = system: Echinochloa oryzoides (Ard.) Fritsch.; experiment: Preemergence weed control under flooded paddy conditions, ECHORC (Watergrass (Calif.)); format: in vivo; settings: flooded paddy; for herbicidal effect rating, ECHORC: preemergence, rated three to four weeks after treatment; for ECHORC: preemergence weeds, herbicidal effect rating 0-9, three to four weeks after treatment
[3] = system: Monochoria vaginalis, Presl.; experiment: Preemergence weed control under flooded paddy conditions, MOOVA (Monochoria); format: in vivo; settings: flooded paddy; for herbicidal effect rating, MOOVA: preemergence, rated three to four weeks after treatment; for MOOVA: preemergence weeds, herbicidal effect rating 0-9, three to four weeks after treatment
Sagittaria pygmaea, L. = experiment: Preemergence weed control under flooded paddy conditions, SAGPY (Arrowhead (Pygmaea)); format: in vivo; settings: flooded paddy; for herbicidal effect rating, SAGPY: preemergence, rated three to four weeks after treatment; for SAGPY: preemergence weeds, herbicidal effect rating 0-9, three to four weeks after treatment
[4] = system: Cyperus serotinus, Rottb.; experiment: Preemergence weed control under flooded paddy conditions, CYPSE (Flatsedge); format: in vivo; settings: for herbicidal effect rating, CYPSE: preemergence, rated three to four weeks after treatment; for CYPSE: preemergence weeds, herbicidal effect rating 0-9, three to four weeks after treatment
Cyperus iria = experiment: Preemergence weed control under flooded paddy conditions, CYPIR (Rice Flatsedge); format: in vivo; settings: flooded paddy; for herbicidal effect rating, CYPIR: preemergence, rated three to four weeks after treatment; for CYPIR: preemergence weeds, herbicidal effect rating 0-9, three to four weeks after treatment

SMILES: Cn1c(C(F)(F)F)cc(=O)n(-c2ccc3snc(C(=O)NS(=O)(=O)c4cccs4)c3c2)c1=O [Example 391, 1,2-Benzisothiazole-3-carboxamide, 5-[3,6-dihydro-3-methyl-2,6-dioxo-4-(trifluoromethyl)-1(2H)-pyrimidinyl]-N-(2-thienylsulfonyl)-]
- herbicidal effect rating ORYSAT ([1]; Rate 0.0320 kg/ha): 2.0
- herbicidal effect rating ORYSAT ([1]; Rate 0.0620 kg/ha): 2.0
- herbicidal effect rating ORYSAT ([1]; Rate 0.1250 kg/ha): 3.0
- herbicidal effect rating ORYSAT ([1]; Rate 0.2500 kg/ha): 3.0
- herbicidal effect rating ORYSAT ([1]; Rate 0.5000 kg/ha): 3.0
- herbicidal effect rating, ECHORC ([2]; Rate 0.0320 kg/ha): 0.0
- herbicidal effect rating, ECHORC ([2]; Rate 0.0620 kg/ha): 0.0
- herbicidal effect rating, ECHORC ([2]; Rate 0.1250 kg/ha): 2.0
- herbicidal effect rating, ECHORC ([2]; Rate 0.2500 kg/ha): 4.0
- herbicidal effect rating, ECHORC ([2]; Rate 0.5000 kg/ha): 6.0
- herbicidal effect rating, MOOVA ([3]; Rate 0.0320 kg/ha): 6.0
- herbicidal effect rating, MOOVA ([3]; Rate 0.0620 kg/ha): 9.0
- herbicidal effect rating, MOOVA ([3]; Rate 0.1250 kg/ha): 9.0
- herbicidal effect rating, MOOVA ([3]; Rate 0.2500 kg/ha): 9.0
- herbicidal effect rating, MOOVA ([3]; Rate 0.5000 kg/ha): 9.0
- herbicidal effect rating, SAGPY (Sagittaria pygmaea, L.; Rate 0.0320 kg/ha): 6.0
- herbicidal effect rating, SAGPY (Sagittaria pygmaea, L.; Rate 0.0620 kg/ha): 6.0
- herbicidal effect rating, SAGPY (Sagittaria pygmaea, L.; Rate 0.1250 kg/ha): 7.0
- herbicidal effect rating, SAGPY (Sagittaria pygmaea, L.; Rate 0.2500 kg/ha): 7.0
- herbicidal effect rating, SAGPY (Sagittaria pygmaea, L.; Rate 0.5000 kg/ha): 9.0
- herbicidal effect rating, CYPSE ([4]; Rate 0.0320 kg/ha): 0.0
- herbicidal effect rating, CYPSE ([4]; Rate 0.0620 kg/ha): 0.0
- herbicidal effect rating, CYPSE ([4]; Rate 0.1250 kg/ha): 0.0
- herbicidal effect rating, CYPSE ([4]; Rate 0.2500 kg/ha): 0.0
- herbicidal effect rating, CYPSE ([4]; Rate 0.5000 kg/ha): 3.0
- herbicidal effect rating, CYPIR (Cyperus iria; Rate 0.0320 kg/ha): 3.0
- herbicidal effect rating, CYPIR (Cyperus iria; Rate 0.0620 kg/ha): 3.0
- herbicidal effect rating, CYPIR (Cyperus iria; Rate 0.1250 kg/ha): 4.0
- herbicidal effect rating, CYPIR (Cyperus iria; Rate 0.2500 kg/ha): 6.0
- herbicidal effect rating, CYPIR (Cyperus iria; Rate 0.5000 kg/ha): 9.0

SMILES: Cn1c(C(F)(F)F)cc(=O)n(-c2ccc3snc(C(=O)NS(=O)(=O)Cc4ccccc4[N+](=O)[O-])c3c2)c1=O [Example 404, 1,2-Benzisothiazole-3-carboxamide, 5-[3,6-dihydro-3-methyl-2,6-dioxo-4-(trifluoromethyl)-1(2H)-pyrimidinyl]-N-[(o-nitrobenzyl)sulfonyl]-]
- ORYSAT ([1]; 0.0320 kg/ha): 0.0
- ORYSAT ([1]; 0.0620 kg/ha): 0.0
- ORYSAT ([1]; 0.1250 kg/ha): 0.0
- ORYSAT ([1]; 0.2500 kg/ha): 2.0
- ECHORC ([2]; 0.0320 kg/ha): 0.0
- ECHORC ([2]; 0.0620 kg/ha): 3.0
- ECHORC ([2]; 0.1250 kg/ha): 6.0
- ECHORC ([2]; 0.2500 kg/ha): 7.0
- MOOVA ([3]; 0.0320 kg/ha): 4.0
- MOOVA ([3]; 0.0620 kg/ha): 5.0
- MOOVA ([3]; 0.1250 kg/ha): 5.0
- MOOVA ([3]; 0.2500 kg/ha): 6.0
- SAGPY (Sagittaria pygmaea, L.; 0.0320 kg/ha): 0.0
- SAGPY (Sagittaria pygmaea, L.; 0.0620 kg/ha): 0.0
- SAGPY (Sagittaria pygmaea, L.; 0.1250 kg/ha): 0.0
- SAGPY (Sagittaria pygmaea, L.; 0.2500 kg/ha): 0.0
- CYPSE ([4]; 0.0320 kg/ha): 0.0
- CYPSE ([4]; 0.0620 kg/ha): 0.0
- CYPSE ([4]; 0.1250 kg/ha): 0.0
- CYPSE ([4]; 0.2500 kg/ha): 0.0
- CYPIR (Cyperus iria; 0.0320 kg/ha): 0.0
- CYPIR (Cyperus iria; 0.0620 kg/ha): 0.0
- CYPIR (Cyperus iria; 0.1250 kg/ha): 2.0
- CYPIR (Cyperus iria; 0.2500 kg/ha): 6.0

SMILES: Cn1c(C(F)(F)F)cc(=O)n(-c2ccc3snc(C(=O)NS(=O)(=O)Cc4ccc(C(C)(C)C)cc4)c3c2)c1=O [Example 405, 1,2-Benzisothiazole-3-carboxamide, N-[(p-tert-butylbenzyl)sulfonyl]-5-[3,6-dihydro-3-methyl-2,6-dioxo-4-(trifluoromethyl)-1(2H)-pyrimidinyl]-]
- ORYSAT ([1]; 0.0320 kg/ha): 0.0
- ORYSAT ([1]; 0.0620 kg/ha): 0.0
- ORYSAT ([1]; 0.1250 kg/ha): 2.0
- ORYSAT ([1]; 0.2500 kg/ha): 2.0
- ECHORC ([2]; 0.0320 kg/ha): 7.0
- ECHORC ([2]; 0.0620 kg/ha): 7.0
- ECHORC ([2]; 0.1250 kg/ha): 9.0
- ECHORC ([2]; 0.2500 kg/ha): 9.0
- MOOVA ([3]; 0.0320 kg/ha): 6.0
- MOOVA ([3]; 0.0620 kg/ha): 6.0
- MOOVA ([3]; 0.1250 kg/ha): 7.0
- MOOVA ([3]; 0.2500 kg/ha): 7.0
- SAGPY (Sagittaria pygmaea, L.; 0.0320 kg/ha): 0.0
- SAGPY (Sagittaria pygmaea, L.; 0.0620 kg/ha): 0.0
- SAGPY (Sagittaria pygmaea, L.; 0.1250 kg/ha): 5.0
- SAGPY (Sagittaria pygmaea, L.; 0.2500 kg/ha): 6.0
- CYPSE ([4]; 0.0320 kg/ha): 0.0
- CYPSE ([4]; 0.0620 kg/ha): 0.0
- CYPSE ([4]; 0.1250 kg/ha): 0.0
- CYPSE ([4]; 0.2500 kg/ha): 0.0
- CYPIR (Cyperus iria; 0.0320 kg/ha): 4.0
- CYPIR (Cyperus iria; 0.0620 kg/ha): 4.0
- CYPIR (Cyperus iria; 0.1250 kg/ha): 7.0
- CYPIR (Cyperus iria; 0.2500 kg/ha): 8.0

SMILES: Cn1c(C(F)(F)F)cc(=O)n(-c2ccc3snc(C(=O)NS(=O)(=O)Cc4ccc(OC(F)(F)F)cc4)c3c2)c1=O [Example 406, 1,2-Benzisothiazole-3-carboxamide, 5-[3,6-dihydro-3-methyl-2,6-dioxo-4-(trifluoromethyl)-1(2H)-pyrimidinyl]-N-{[p-(trifluoromethoxy)-benzyl]sulfonyl}-]
- ORYSAT ([1]; 0.0320 kg/ha): 0.0
- ORYSAT ([1]; 0.0620 kg/ha): 0.0
- ORYSAT ([1]; 0.1250 kg/ha): 2.0
- ORYSAT ([1]; 0.2500 kg/ha): 4.0
- ECHORC ([2]; 0.0320 kg/ha): 6.0
- ECHORC ([2]; 0.0620 kg/ha): 6.0
- ECHORC ([2]; 0.1250 kg/ha): 7.0
- ECHORC ([2]; 0.2500 kg/ha): 7.0
- MOOVA ([3]; 0.0320 kg/ha): 4.0
- MOOVA ([3]; 0.0620 kg/ha): 7.0
- MOOVA ([3]; 0.1250 kg/ha): 9.0
- MOOVA ([3]; 0.2500 kg/ha): 9.0
- SAGPY (Sagittaria pygmaea, L.; 0.0320 kg/ha): 3.0
- SAGPY (Sagittaria pygmaea, L.; 0.0620 kg/ha): 4.0
- SAGPY (Sagittaria pygmaea, L.; 0.1250 kg/ha): 4.0
- SAGPY (Sagittaria pygmaea, L.; 0.2500 kg/ha): 4.0
- CYPSE ([4]; 0.0320 kg/ha): 0.0
- CYPSE ([4]; 0.0620 kg/ha): 0.0
- CYPSE ([4]; 0.1250 kg/ha): 3.0
- CYPSE ([4]; 0.2500 kg/ha): 6.0
- CYPIR (Cyperus iria; 0.0320 kg/ha): 0.0
- CYPIR (Cyperus iria; 0.0620 kg/ha): 4.0
- CYPIR (Cyperus iria; 0.1250 kg/ha): 4.0
- CYPIR (Cyperus iria; 0.2500 kg/ha): 7.0

SMILES: Cn1c(C(F)(F)F)cc(=O)n(-c2ccc3snc(C(Br)S(=O)(=O)c4ccccc4)c3c2)c1=O (stereo not drawn) [Example 407, 2,4(1H,3H)-Pyrimidinedione, 3-{3-[bromo(phenylsulfonyl)methyl]-1,2-benzisothiazol-5-yl}-1-methyl-6-(trifluoromethyl)-]
- ORYSAT ([1]; 0.0320 kg/ha): 0.0
- ORYSAT ([1]; 0.0620 kg/ha): 2.0
- ORYSAT ([1]; 0.1250 kg/ha): 3.0
- ORYSAT ([1]; 0.2500 kg/ha): 5.0
- ECHORC ([2]; 0.0320 kg/ha): 0.0
- ECHORC ([2]; 0.0620 kg/ha): 3.0
- ECHORC ([2]; 0.1250 kg/ha): 7.0
- ECHORC ([2]; 0.2500 kg/ha): 7.0
- MOOVA ([3]; 0.0320 kg/ha): 6.0
- MOOVA ([3]; 0.0620 kg/ha): 7.0
- MOOVA ([3]; 0.1250 kg/ha): 9.0
- MOOVA ([3]; 0.2500 kg/ha): 9.0
- SAGPY (Sagittaria pygmaea, L.; 0.0320 kg/ha): 0.0
- SAGPY (Sagittaria pygmaea, L.; 0.0620 kg/ha): 2.0
- SAGPY (Sagittaria pygmaea, L.; 0.1250 kg/ha): 6.0
- SAGPY (Sagittaria pygmaea, L.; 0.2500 kg/ha): 7.0
- CYPSE ([4]; 0.0320 kg/ha): 0.0
- CYPSE ([4]; 0.0620 kg/ha): 0.0
- CYPSE ([4]; 0.1250 kg/ha): 5.0
- CYPSE ([4]; 0.2500 kg/ha): 7.0
- CYPIR (Cyperus iria; 0.0320 kg/ha): 3.0
- CYPIR (Cyperus iria; 0.0620 kg/ha): 4.0
- CYPIR (Cyperus iria; 0.1250 kg/ha): 9.0
- CYPIR (Cyperus iria; 0.2500 kg/ha): 9.0
